Test results published in patent US10550105B2 (Ribon Therapeutics Inc., priority 2018, dated 2020).
pIC50: −log10 of the molar value.

Each compound was assayed against PARP7 (Homo sapiens (Human), UniProt Q7Z3E1) (assay: Enzymatic assay for inhibition of PARP7: TR-FRET displacement of biotinylated Probe A from the TIPARP active site). Conditions: Table A-1.
Type: binding
In short: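 Compound dose-response series were incubated with TIPARP and biotinylated Probe A, with a final 30 min step at 25 °C. TR-FRET was read at 320 nm excitation, 615/665 nm emission and 90 μs delay, using the 665/615 ratio to measure complex formation. % inhibition was fitted with a floating or fixed (1) Hill coefficient.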

Chain of PARP7 (Q7Z3E1 whole entry): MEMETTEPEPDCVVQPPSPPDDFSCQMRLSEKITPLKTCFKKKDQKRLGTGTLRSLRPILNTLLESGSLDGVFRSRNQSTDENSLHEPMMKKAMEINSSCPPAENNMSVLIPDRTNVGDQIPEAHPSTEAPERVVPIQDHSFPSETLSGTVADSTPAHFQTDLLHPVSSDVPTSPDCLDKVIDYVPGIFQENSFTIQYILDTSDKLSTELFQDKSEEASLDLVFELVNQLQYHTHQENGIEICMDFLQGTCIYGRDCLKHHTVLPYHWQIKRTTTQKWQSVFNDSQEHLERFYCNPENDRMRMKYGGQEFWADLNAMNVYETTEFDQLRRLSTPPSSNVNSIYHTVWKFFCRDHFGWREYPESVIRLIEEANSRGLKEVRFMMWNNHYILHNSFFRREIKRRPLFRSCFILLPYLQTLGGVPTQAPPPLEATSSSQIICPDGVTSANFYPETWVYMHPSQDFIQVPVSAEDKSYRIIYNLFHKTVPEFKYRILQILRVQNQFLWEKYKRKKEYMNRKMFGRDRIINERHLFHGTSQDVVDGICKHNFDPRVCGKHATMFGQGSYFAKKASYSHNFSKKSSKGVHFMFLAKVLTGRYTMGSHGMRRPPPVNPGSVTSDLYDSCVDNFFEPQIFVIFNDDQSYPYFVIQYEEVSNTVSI

Row | SMILES | pIC50
1 | O=c1[nH]ncc(N2Cc3cccc(OCCN4CCOCC4)c3C2)c1Cl [Example 240, 4-Chloro-5-(4-(2-morpholinoethoxy)isoindolin-2-yl)pyridazin-3(2H)-one] | 6.00 to 7.00
2 | N#Cc1ccc(N2CCN(C(=O)CCNC(=O)C[C@@H]3CCCN3c3cn[nH]c(=O)c3C(F)(F)F)CC2)nc1 [Example 132, N-[3-[4-(5-cyanopyridin-2-yl)piperazin-1-yl]-3-oxopropyl]-2-[(2S)-1-[6-oxo-5-(trifluoromethyl)-1,6-dihydropyridazin-4-yl]pyrrolidin-2-yl]acetamide] | 6.00 to 7.00
3 | Cc1c(N2Cc3ccc(OC4CCNCC4)cc3C2)cn[nH]c1=O [Example 187, 4-Methyl-5-(5-(piperidin-4-yloxy)isoindolin-2-yl)pyridazin-3(2H)-one] | ≤ 6.00
4 | CN(C)CCOc1cnc2c(c1)CN(c1cn[nH]c(=O)c1C(F)(F)F)C2 [Example 335, 5-(3-(2-(Dimethylamino)ethoxy)-5,7-dihydro-6H-pyrrolo[3,4-b]pyridin-6-yl)-4-(trifluoromethyl)pyridazin-3(2H)-one] | 6.00 to 7.00
5 | C[C@H](COc1cn[nH]c(=O)c1C(F)(F)F)OCCC(=O)N1CCN(c2ncc(Cl)cn2)CC1 (single isomer, unassigned) [Example 543 Isomer C] | > 7.00
6 | O=C(CCOC[C@@H](Nc1cn[nH]c(=O)c1C(F)(F)F)[C@H]1CCOC1)N1CCN(c2ncc(C(F)(F)F)cn2)CC1 (single isomer, unassigned; isomer c) [Example 614 Isomer C] | > 7.00
7 | N#Cc1cnc(N2CCN(C(=O)CCOCCOc3cn[nH]c(=O)c3C(F)(F)F)CC2)nc1 [Example 590, 2-(4-(3-(2-(6-Oxo-5-(trifluoromethyl)-1,6-dihydropyridazin-4-yloxy)ethoxy)propanoyl)piperazin-1-yl)pyrimidine-5-carbonitrile] | > 7.00
8 | O=C(COC[C@@H]1CCCN1c1cn[nH]c(=O)c1C(F)(F)F)N[C@H]1CC[C@H](Nc2ccccn2)CC1 (single isomer, unassigned; isomer a) [Example 80 Isomer A] | 6.00 to 7.00
9 | N#Cc1ccc(N2CCCN(C(=O)CCOC[C@@H]3CCCN3c3cn[nH]c(=O)c3C(F)(F)F)CC2)nc1 [Example 106, (S)-6-(4-(3-((1-(6-oxo-5-(trifluoromethyl)-1,6-dihydropyridazin-4-yl)pyrrolidin-2-yl)methoxy)propanoyl)-1,4-diazepan-1-yl)nicotinonitrile] | > 7.00
10 | CCc1c(N2Cc3cccc(OCCO)c3C2)cn[nH]c1=O [Example 185, 4-Ethyl-5-(4-(2-hydroxyethoxy)isoindolin-2-yl)pyridazin-3(2H)-one] | ≤ 6.00
11 | N#Cc1ccc(N2CCN(C(=O)c3cc(OC[C@@H]4c5ccccc5CN4c4cn[nH]c(=O)c4C(F)(F)F)ccn3)CC2)nc1 [Example 357, (S)-6-(4-(4-((2-(6-Oxo-5-(trifluoromethyl)-1,6-dihydropyridazin-4-yl)isoindolin-1-yl)methoxy)picolinoyl)piperazin-1-yl)nicotinonitrile] | > 7.00
12 | N#Cc1ccc(N2CCN(C(=O)C3CC(OC[C@@H]4CCCN4c4cn[nH]c(=O)c4C(F)(F)F)C3)CC2)nc1 (single isomer, unassigned; isomer a) [Example 95 Isomer A] | > 7.00

Other lines, results leading:

Row | pIC50 | SMILES
13 | > 7.00 | N#Cc1ccc(N2CCN(C(=O)c3cccc(OC[C@@H]4C[C@H](C#N)CN4c4cn[nH]c(=O)c4C(F)(F)F)c3)CC2)nc1 [Example 452, 6-(4-(3-(((2S,4S)-4-Cyano-1-(6-oxo-5-(trifluoromethyl)-1,6-dihydropyridazin-4-yl)pyrrolidin-2-yl)methoxy)benzoyl)piperazin-1-yl)nicotinonitrile]
14 | > 7.00 | N#Cc1ccc(N2CCN(C(=O)CNCCOc3cccc4c3CN(c3cn[nH]c(=O)c3C(F)(F)F)C4)CC2)nc1 [Example 491, 6-(4-((2-((2-(6-Oxo-5-(trifluoromethyl)-1,6-dihydropyridazin-4-yl)isoindolin-4-yl)oxy)ethyl)glycyl)piperazin-1-yl)nicotinonitrile]
15 | ≤ 6.00 | N#Cc1ccc(N2C[C@H]3C[C@@H]2CN3C(=O)CCOC[C@@H]2CCCN2c2cn[nH]c(=O)c2C(F)(F)F)nc1 [Example 112B, 6-[(1R,4R)-5-(3-(((S)-1-(6-oxo-5-(trifluoromethyl)-1,6-dihydropyridazin-4-yl)pyrrolidin-2-yl)methoxy)propanoyl)-2,5-diaza-bicyclo[2.2.1]heptan-2-yl)nicotinonitrile]
16 | ≤ 6.00 | N#Cc1c(N2Cc3cccc(OCCO)c3C2)cn[nH]c1=O [Example 176, 5-(4-(2-Hydroxyethoxy)isoindolin-2-yl)-3-oxo-2,3-dihydropyridazine-4-carbonitrile]
17 | ≤ 6.00 | Cc1c(N2Cc3cccc(OC4CCNCC4)c3C2)cn[nH]c1=O [Example 175, 4-Methyl-5-(4-(piperidin-4-yloxy)isoindolin-2-yl)pyridazin-3(2H)-one]
18 | > 7.00 | C[C@@H](COCCC(=O)N1CCN(c2ccc(F)cn2)CC1)Nc1cn[nH]c(=O)c1C(F)(F)F [Example 684, (S)-5-((1-(3-(4-(5-Fluoropyridin-2-yl)piperazin-1-yl)-3-oxopropoxy)propan-2-yl)amino)-4-(trifluoromethyl)pyridazin-3(2H)-one]
19 | > 7.00 | Cc1c(OCCOCCC(=O)N2CCN(c3ncc(Cl)cn3)CC2)cn[nH]c1=O [Example 549, 5-(2-[3-[4-(5-Chloropyrimidin-2-yl)piperazin-1-yl]-3-oxopropoxy]ethoxy)-4-methyl-2,3-dihydropyridazin-3-one]
20 | > 7.00 | N#Cc1ccc(N2CCN(C(=O)/C=C/COC[C@H]3c4ccccc4CN3c3cn[nH]c(=O)c3C(F)(F)F)CC2)nc1 [Example 79 Isomer D, 6-[4-[(2E)-4-[[(1R)-2-[6-oxo-5-(trifluoromethyl)-1,6-dihydropyridazin-4-yl]-2,3-dihydro-1H-isoindol-1-yl]methoxy]but-2-enoyl]piperazin-1-yl]pyridine-3-carbonitrile]
21 | > 7.00 | O=c1[nH]ncc(N2Cc3cc(F)c(OCC4CCCNC4)cc3C2)c1C(F)(F)F (stereo not drawn) [Example 44, 5-[5-fluoro-6-(piperidin-3-ylmethoxy)-2,3-dihydro-1H-isoindol-2-yl]-4-(trifluoromethyl)-2,3-dihydropyridazin-3-one]
22 | > 7.00 | N#Cc1ccc(N2CCN(C(=O)c3cccc(OCC4c5ccccc5CN4c4cn[nH]c(=O)c4C(F)(F)F)c3)CC2)nc1 (stereo not drawn) [Example 340, 6-(4-(3-((2-(6-Oxo-5-(trifluoromethyl)-1,6-dihydropyridazin-4-yl)isoindolin-1-yl)methoxy)benzoyl)piperazin-1-yl)nicotinonitrile]
23 | > 7.00 | COC[C@@H](COCCC(=O)N1CCN(c2ncc(C(F)(F)F)cn2)CC1)Nc1cn[nH]c(=O)c1Cl [Example 651, (S)-4-Chloro-5-((1-methoxy-3-(3-oxo-3-(4-(5-(trifluoromethyl)pyrimidin-2-yl)piperazin-1-yl)propoxy)propan-2-yl)amino)pyridazin-3(2H)-one]
24 | > 7.00 | N#Cc1ccc(N2CCN(C(=O)CCNC[C@@H]3c4ccccc4CN3c3cn[nH]c(=O)c3C(F)(F)F)CC2)nc1 [Example 146A, 6-[4-[3-([[(1S)-2-[6-oxo-5-(trifluoromethyl)-1,6-dihydropyridazin-4-yl]-2,3-dihydro-1H-isoindol-1-yl]methyl]amino)propanoyl]piperazin-1-yl]pyridine-3-carbonitrile]
